For the data set the following is noted: Crystal; DTA.

Here are results for one compound from the NIST ThermoML archive (doi:10.1016/j.fluid.2019.05.001).

Structures are written as SMILES. Numbers after ± are expanded uncertainties.

Regarding `CCOC(=O)CCC[N+]1(C)CCCC1.[Br-]` [1-(4-ethoxy-4-oxobutyl)-1-methylpyrrolidinium bromide], the Normal melting temperature amounted to 73.00 ± 1 °C.
